For one test, the system named is L929 cells. As to the kind of experiment: Necroptosis inhibition in L929 cells + mTNF-α, 8 h, AK release. The format is cell-based, murine. Particulars: for EC50: Mus musculus, L929. As to the method: A total of 251,328 small-molecule compounds were screened in L929 cells incubated with mTNF-α alone or together with test compounds at 31.7 μM for 8 h. Intraplate controls for data normalization consisted of untreated cell wells. L929 cells co-incubated with mTNF-α and SN-2668/Nec-1 served as positive controls (Fig. S2A). […] In HTS step one (primary screening), valid data was obtained for 247,738 compounds, 3353 of which were within the established hit selection criteria, corresponding to a 1.4% hit rate for the full library (Fig. 1a).
The second screening step aimed to determine the EC50 of selected compounds. L929 and Jurkat FADD^-/- cells were co-incubated with TNF-α and test compounds at 10-point concentration range (0.004–100 μM) for 8 h. Compound-mediated inhibition of necroptosis was assessed through AK release and the EC50 calculated. Jurkat cells were used to validate results in human cells. […] In HTS step two, 4374 compounds (3353 hits from HTS step one plus 1021 near neighbours) were evaluated for potency by dose-response curves. From those, 1,438 hit compounds passed the selection criteria on both cell lines, corresponding to a […] hit rate.
L929 cells were co-incubated for 8 h with mTNF-α and test compounds at 31.7 μM after which AK release was measured. […] Hit compounds were then evaluated for apoptosis modulation. Further details are provided as Supplementary Information.
Cell treatments and viability assays. Cells were seeded in 384- or 96-well plates at 1000 or 8000 cells/well (in 12.5 μL or 100 μL final volume), respectively, using a Multidrop^TM Combi Reagent Dispenser (ThermoFisher Scientific). For inducing necroptosis, L929 and Jurkat FADD^-/- cells were incubated with 10 ng/mL mTNF-α and hTNF-α respectively; BV2 cells with 25 µM Z-VAD-FMK, and HT29 cells with 20 ng/mL hTNF-α, 250 nM Smac mimetic BV6 and 10 μM Z-VAD-FMK. Cells were co-incubated in the presence of test compounds at target concentrations for 8 or 24 h. Nec-1 at 29.2 μM was used as positive control. For apoptosis assays, Jurkat E6.1 cells were co-incubated with 0.5 μg/mL CHX and test compounds at target concentrations for 8 h. In cytotoxicity assays, HepG2 and L929 cells were seeded in 96-well plates at 5000 cells/well, in 100 μL final volume. Twenty-four hours after seeding, cells were incubated with test compounds at 50 and 100 μM for additional 24 h.
Adenylate kinase (AK) and lactate dehydrogenase (LDH) release from damaged cells were measured using the Toxilight BioAssay Kit (Lonza, Basel, Switzerland) and the Cytotoxicity Detection Kit (Roche Diagnostics GmbH, Mannheim, Germany), respectively. Adenosine triphosphate (ATP) metabolism was evaluated using CellTiter-Glo^TM Luminescent Cell Viability Assay (Promega, Madison, WI, USA). Apoptosis was determined by the measurement of caspase-3/-7 activity using the Caspase-Glo® 3/7 Assay (Promega) according to the manufacturer’s instructions. Cellular metabolic activity was measured using CellTiter 96® Aqueous Non-Radioactive Cell Proliferation (MTS) Assay (Promega). Luminescence signal was recorded using a GloMax®-MultiDetection System (Promega) and absorbance with a Model 680 microplate reader (Bio-Rad Laboratories Inc, Hercules, CA, USA).
Primary high-throughput screen. Test compounds were arrayed in 384-well white microtiter plates and screened for their potential as necroptosis inhibitors at 32 μM target concentration. Eight hours after co-incubation of L929 cells with mTNF-α and test compounds, AK release was evaluated. […]

The subject of the next test is TNF-α-induced SIRS. As to the kind of experiment: TNF-α-induced systemic inflammatory response syndrome (SIRS) in mice. Type of test: in vivo, mouse. The note with it: 5 mg/kg i.v. 15 min before mTNF-α 0.38 mg/kg; C57BL/6J mice. An excerpt:
To confirm that the screening strategy leads to hits functionally active in vivo, we tested one of the hits for its ability to protect against RIPK-driven inflammation in TNF-α-induced systemic inflammatory response syndrome (SIRS). This mouse model of sterile sepsis[32] is dependent on RIPK1 and RIPK3 kinase activity and independent of apoptosis and inflammasome activity.
Representative blots and quantification of p-RIPK3/RIPK3 and p-MLKL/MLKL ratios in fold-change from control. Blots were normalized to endogenous β-actin.
Nec-1 was positive control for TNF-induced SIRS protection. Body temperature and mortality were monitored up to 96 h. Further details are provided as Supplementary Information.
Animal studies, injections and monitoring. Male C57BL/6J mice with 18-26 g (Charles River Laboratories International, Inc., Wilmington, MA, USA) were used at the age of 8-14 weeks. Five to seven animals were included in each experimental group. All animal experiments were carried out with the permission of local animal ethical committee in accordance with the EU Directive (2010/63/EU), Portuguese laws (DL113/2013, 2880/2015, 260/2016) and all relevant legislations. Animals received humane care in a temperature-controlled environment with a 12 h light-dark cycle and ad libitum access to pelleted chow and water, complying with the Institute’s guidelines, and as outlined in the “Guide for the Care and Use of Laboratory Animals” prepared by the National Academy of Sciences and published by the National Institutes of Health (NIH publication 86-23 revised 1985). […] Nec-1 was diluted as follows (v/v): 48% PBS 1X, 17% DMSO and 35% PEG 400. […] All injections were administered intravenously (i.v.) in 100 µL volume each. Body temperature was recorded on mice pre-shaven back using a non-contact infrared thermometer suitable for animal use (BIO-IRB153; BioSeb, Vitrolles, France). Body temperature and mortality were monitored up to 96 h. Animals were euthanized by inhalative induction of narcosis with isoflurane at the end of the experiment, or at humane endpoints according to the Clinical Severity Score ^59.

Where [1] appears, read: 8 h, 10 ng/mL mTNF-α, AK release, screening step 1 as printed, read-out: EC50 L929 + TNF-α (in vitro).
The mark [2] stands for this setting: read-out: L929 + TNF-α (in vitro) pEC50 (converted).

The structures appear in SMILES notation. Read-outs that look alike come from different tables or passages of the source.

For the molecule `O=C(c1cnn(Cc2ccccc2)c1)N1CCOc2ccccc2C1` [SN-6109], the EC50 in the test with L929 cells (setting [1]) came out at 6.3 µM. For the same molecule, the EC50 in the test with L929 cells (setting [2]) was 6.31 µM. Moreover, in the test with TNF-α-induced SIRS, the “Survival in TNF-α-induced SIRS” value is ~50% and the “TNF-α shock-associated hypothermia (body temperature)” value is given as “gradually recovered their basal temperature in 48 h post-injection”.
Turning to `CN1C(=O)C(Cc2c[nH]c3ccccc23)NC1=S` (stereo not drawn) [Nec-1, necrostatin-1], the Membrane integrity in the test with L929 cells (DMSO = 0, no addition = −100, L929, 10 ng/mL mTNF-α, 8 h, Nec-1 at 29.2 μM) is reported as > −100 percentage of control. Also, the EC50 in the test on L929 cells (setting [1]) was determined as 1.25 µM. The EC50 in the test on L929 cells (setting [2]) was 1.26 µM. In the test with TNF-α-induced SIRS, the “Survival in TNF-α-induced SIRS” value is “all survived” and the “TNF-α shock-associated hypothermia (body temperature)” value is recorded as “fully protected from hypothermia”.

These data come from paper PMC7026080, “Phenotypic high-throughput screening platform identifies novel chemotypes for necroptosis inhibition” (Cell Death Discovery, 2020).
